From EP0334244A2, “Bradykinin Antagonist Peptides” (THE PROCTER & GAMBLE COMPANY, priority 1988, dated 1989)
Values joined by “and” are separate entries in the source; they are usually repeats but may differ in a detail not shown here. Equal entries are not always repeated. Non-standard residues stand in square brackets, D forms with d. Residues, ends and D or L forms follow the SMILES beside them. Hyp = O=C(O)[C@@H]1C[C@@H](O)CN1

Experiments:
Male CF-1 mice = experiment: Mouse abdominal constriction test (phenylquinone-induced writhing); type: in vivo; conditions: for Change from Control (%): I.P.; for bradykinin agonist / antagonist activity in the assay: result in words, mouse abdominal constriction assay
Procedure: Compounds of the present invention are tested for analgesic activity using the mouse abdominal constriction assay. This assay is described in Hendershot, L.C., & J. Forsaith, "Antagonism of the Frequency of Phenylquinone-induced Writhing in the Mouse by Weak Analgesics and Nonanalgesics", J. Pharmacol., Vol. 125, (1959), pp. 237-240, and in Methods in Narcotics Research, S. Ehrenpreis and A. Neidle, (eds.), Marcel Dekker, Inc., New York (pub.), 1975, pp. 64-65, the disclosures of both these references being incorporated herein in their entirety by reference.
Male CF-1 mice (Charles River Breeding Laboratories, Inc.), weighing approximately 20 grams and food fasted overnight, are used in these assays. Test compounds are prepared for intraperitoneal (i.p.) injection, with compounds of the present invention being prepared in distilled deionized water so that the appropriate dose is given in 0.2 mls to a 20 gram mouse.
An i.p. injection of 0.02% phenylquinone (2.5 mg/kg) is given at a concentration of 0.25 ml/20 grams body weight. Five minutes later the mice receive an i.p. injection of test compound. Five minutes after the i.p. injection of test compound, the number of full body writhes are counted for the succeeding ten minutes. Percent analgesia in this assay is calculated as follows: [formula]
The mouse abdominal constriction assay was used to measure the antagonist activity of peptides of the present invention and related peptides as shown in Table 2: Table 2

Bradykinin receptor = biological target: T1, Bradykinin receptor (Mus musculus, UniProt P32299); experiment: Cell culture method: inhibition of bradykinin-induced increase in cytosolic free calcium in fura-2 loaded NG108-15 cells; type: cell-based; conditions: for agonist / antagonist activity in this assay: result in words
T1 construct: suspensions of cultured NG108-15 cells loaded with the Ca²⁺-sensitive fluorescent indicator fura-2; endogenous in cells; host or cells: NG108-15 cells (University of California at San Francisco, Cell Culture Facility)
T1 sequence (P32299 1-392): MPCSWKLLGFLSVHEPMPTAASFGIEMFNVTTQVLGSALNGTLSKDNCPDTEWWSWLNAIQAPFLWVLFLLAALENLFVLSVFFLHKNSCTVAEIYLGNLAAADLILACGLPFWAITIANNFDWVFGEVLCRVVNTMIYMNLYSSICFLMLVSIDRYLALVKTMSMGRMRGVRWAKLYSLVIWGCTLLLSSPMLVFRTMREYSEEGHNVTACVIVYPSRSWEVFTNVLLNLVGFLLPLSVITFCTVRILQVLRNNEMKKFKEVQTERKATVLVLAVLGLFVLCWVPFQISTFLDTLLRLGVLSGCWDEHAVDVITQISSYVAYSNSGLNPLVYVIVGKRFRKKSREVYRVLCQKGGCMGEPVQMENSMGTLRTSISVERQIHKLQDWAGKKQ
Procedure: In many different tissues and isolated cell populations, bradykinin induces a receptor mediated rise in the concentration of cytosolic free calcium ([Ca²⁺]i). In cultured NG108-15 neuronal cells (University of California at San Francisco, Cell Culture Facility, San Francisco, California), bradykinin increases [Ca²⁺]i in a dose dependent manner from a basal concentration of about 260 nM to approximately 1000 nM at a maximally effective concentration of bradykinin (1 X 10⁻⁶M). The half maximally effective concentration (EC₅₀) of bradykinin is 3 X 10⁻⁹M. Bradykinin receptor antagonist potency is evaluated by determining the concentration of antagonist required to inhibit by 50% (IC₅₀) the increase in [Ca²⁺]i induced by 1 X 10⁻⁹M bradykinin (Bachem, Torrance, CA). NG108-15 cells are cultured in […] Corning flasks (Fisher Scientific, Cincinnati, OH) in Dulbecco's modified minimal essential medium (high glucose; Gibco, Grand Island, NY) containing 5% fetal bovine serum (Hyclone, Logan, UT) and HAT (hypoxanthine-aminopterin-thymidine, Sigma, St. Louis, MO). The concentration of cytosolic free Ca²⁺ ([Ca²⁺]i) is measured in suspensions of cultured NG108-15 cells loaded with the Ca²⁺-sensitive fluorescent indicator fura-2 essentially as described by Osugi et al. (Journal Pharmacol. Exp. Ther., Vol. 240, (1987), pp. 617-622). Flasks of confluent cells are incubated for 60 minutes at 37°C in 20 mls of HEPES-buffered saline [140 mM NaCl, 5.4 mM KCl, 0.8 mM MgSO₄, 1.0 mM CaCl₂, 20 mM HEPES (N-2-. hydroxyethylpiperazine-N′-2-ethanesulfonic acid; Behring Diagnostics, LaJolla, CA), 10 mM glucose, 0.25% bovine serum albumin (Cat. #A-4503; Sigma Chemical Co., St. Louis, MO)] containing fura-2 acetoxymethyl ester (Molecular Probes, Inc., Eugene, OR) at a final concentration of 2 µM. The flasks are then washed twice with 30 mls of HEPES-buffered saline and the cells detached from the flasks in 15 mls of HEPES-buffered saline. The cell suspension is centrifuged at 25°C for 5 minutes at 350 x g and the cell pellet resuspended to a final volume of approximately 10 ml of HEPES-buffered saline/flask. The cell suspension is maintained at room temperature prior to use. The fluorescence of the fura-2 loaded NG108-15 cells is measured at an excitation wavelength of 340 nm (10 nM slit) and an emission wavelength of 500 nm (10 nM slit) in a Perkin-Elmer LS-5 fluorescence spectrophotometer fitted with a magnetic stirrer and a thermostatted cell holder. An aliquot of the cell suspension (1.37 ml) is placed in a cylindrical glass cuvette (internal diameter of 8 mm) containing a teflon coated stir bar and warmed to 37°C in a water bath. After 5 minutes, the cuvette is placed in the cell holder of the fluorometer and stirring is initiated just prior to the addition of a test sample. Routinely, a test sample (0.014 ml of a 100-fold concentration solution) is added to the cuvette 30 seconds prior to the addition of 1 X 10⁻⁹ M bradykinin. Fluorescence is recorded continuously during the addition of the test sample and bradykinin. Following completion of the fluorescence measurements, the cells are lysed with Triton X-100 at a final concentration of 10% (v/v) and the fluorescence of the Ca²⁺ saturated fura-2 (Fmax; fluorescence in the presence of 1 mM Ca²⁺) and the Mn²⁺-quenched fura-2 (autofluorescence (AF); fluorescence in the presence of 2 mM Mn²⁺) determined. […]

guinea pig ileum = experiment: Guinea pig ileum assay (muscle contraction); conditions: negative log of the dose causing half maximal contraction
Procedure: The bradykinin antagonists are assayed on guinea pig ileum for inhibition of the muscle-contracting activity of bradykinin, according to the commonly accepted assay method for bradykinin and related kinins as described in Stewart, J.M., "Chemistry and Biological Activity of Peptides Related to Bradykinin", Chapter V of Bradykinin, Kallidin and Kallikrein, (Handbook of Expt. Pharmacol.), E. G. Erdoes (ed.), Vol 25, Springer Verlag (pub.), 1970, pp. 242-243. The inhibition potencies are determined on isolated guinea pig ileum, according to the commonly accepted manner described for antagonists of biologically active compounds in Schild, H.O., "pA, a New Scale for the Measurement of Drug Antagonism", Br. J. Pharmacol., Vol. 2, No. 3 (1947), pp. 189-206). In the assay, a dose-response curve is determined for the reference substance bradykinin. The dose of bradykinin which produces a half maximal contraction of tissue is the ED₅₀ dose. An amount of bradykinin equivalent to twice the ED₅₀ dose is administered to the tissue 30 seconds after the start of incubation of the tissue with a dose of antagonist. Doses of antagonist are increased in this protocol until pre-incubation with a dose of antagonist reduces the contraction in response to the double ED₅₀ dose of bradykinin to response of a single ED₅₀ dose of bradykinin. […]

Row | Molecule | bradykinin agonist / antagonist activity in the assay (Male CF-1 mice) | agonist / antagonist activity in this assay (Bradykinin receptor) | Change from Control (%) (Male CF-1 mice; Dose 50 mg/kg) | also measured
1 | N=C(N)NCCC[C@H](NC(=O)[C@H](Cc1ccccc1)NC(=O)[C@@H](Cc1ccccc1)NC(=O)[C@H](CO)NC(=O)[C@H](Cc1ccccc1)NC(=O)CNC(=O)[C@@H]1C[C@@H](O)CN1C(=O)[C@@H]1CCCN1C(=O)[C@@H](N)CCCNC(=N)N)C(=O)O [Compound 1, H-Arg-Pro-Hyp-Gly-Phe-Ser-DPhe-Phe-Arg-OH, reference compound] (H-RP[Hyp]GFS[dF]FR-OH) | bradykinin agonist | high agonist (bradykinin-like) activity |  | Change from Control (%) (Male CF-1 mice; Dose 25 mg/kg, negative value = agonist): -31%; IC₅₀ (Bradykinin receptor; inhibition by 50% of the increase in [Ca²⁺]i induced by 1 X 10⁻⁹M bradykinin): Partial Agonist*
2 | N=C(N)NCCC[C@H](NC(=O)[C@H](Cc1ccccc1)NC(=O)[C@@H](Cc1ccccc1)NC(=O)[C@H](CO)NC(=O)[C@H](Cc1ccccc1)NC(=O)CNC(=O)[C@H](CC(N)=O)NC(=O)[C@@H]1CCCN1C(=O)[C@@H](N)CCCNC(=N)N)C(=O)O [Compound 2, H-Arg-Pro-Asn-Gly-Phe-Ser-DPhe-Phe-Arg-OH] (H-RPNGFS[dF]FR-OH) | bradykinin antagonist activity | Compounds 2 and 6 are peptides of the present invention and both exhibit only antagonist (no agonist) activity in this assay. | 57% | 
3 | N=C(N)NCCC[C@H](NC(=O)[C@H](Cc1ccccc1)NC(=O)[C@@H](Cc1ccccc1)NC(=O)[C@H](CO)NC(=O)[C@H](Cc1ccccc1)NC(=O)[C@H]1CCCN1C(=O)[C@H](CC(N)=O)NC(=O)[C@@H]1CCCN1C(=O)[C@@H](N)CCCNC(=N)N)C(=O)O [Compound 3, H-Arg-Pro-Asn-DPro-Phe-Ser-DPhe-Phe-Arg-OH] (H-RPN[dP]FS[dF]FR-OH) | bradykinin antagonist activity |  | 72% and 61% | 
4 | N=C(N)NCCC[C@@H](N)C(=O)N[C@@H](CCCNC(=N)N)C(=O)N1CCC[C@H]1C(=O)N[C@@H](CC(N)=O)C(=O)NCC(=O)N[C@@H](Cc1ccccc1)C(=O)N[C@@H](CO)C(=O)N[C@H](Cc1ccccc1)C(=O)N[C@@H](Cc1ccccc1)C(=O)N[C@@H](CCCNC(=N)N)C(=O)O [Compound 6, H-DArg-Arg-Pro-Asn-Gly-Phe-Ser-DPhe-Phe-Arg-OH] (H-[dR]RPNGFS[dF]FR-OH) |  | Compounds 2 and 6 are peptides of the present invention and both exhibit only antagonist (no agonist) activity in this assay. |  | 
5 | H-Arg-Pro-Aap-Gly-Phe-Ser-DPhe-Phe-Arg-OH [Compound 4] | bradykinin antagonist activity |  | 46% | 
6 | H-DArg-Arg-Pro-Hyp-Gly-Phe-Ser-DPhe-Phe-Arg-OH [Compound 5] |  | small amount of agonist activity |  | agonist activity (Bradykinin receptor; printed beside the IC₅₀): 10%
7 | bradykinin (RPPGFSPFR; Bradykinin; UniProt P01042 381-389, looked up) [naturally occurring agonist nonapeptide] |  |  |  | pD2 value (guinea pig ileum): 7.4; [Ca²⁺]i at maximally effective concentration (Bradykinin receptor; 1 X 10⁻⁶M bradykinin, basal concentration about 260 nM): approximately 1000 nM
